Measured values from publication PMC9020739, “Identification of a two-component regulatory system involved in antimicrobial peptide resistance in Streptococcus pneumoniae” (PLoS Pathogens, 2022).
Where a SMILES comes first, the peptide text is derived from it. Bridges are numbered along the chain shown (N, C = ends). [ ]: non-standard residue; d: D form. The star is where a group is joined. Ileψ(thiazoline)Cys = CC[C@H](C)[C@H](N)C1=N[C@H](C(=O)*)CS1; dOrn = NCCC[C@@H](N)C(=O)O

Tests used:
[1] = tested on: bceAB and tcs01 genes in S. pneumoniae D39 WT; test: Quantification of gene expression by qPCR; format: cell-based, Streptococcus pneumoniae; conditions: D39 wild-type, bacitracin 1 μg/ml for 5, 15 and 30 min, relative to untreated control
Experimental: (§1) S. pneumoniae D39 WT and Δtcs01 strains were routinely grown to OD600nm = 0.3 in THY. Then 1 μg/mL of bacitracin was added to the growth media for up to 30 min. Samples were taken at time points shown in the results section. Next, the cultures were mixed with RNA protect (Qiagen) at 1:1 ratio and incubated at room temperature for 5 min and centrifuged for 10 min at 3, 200 g at 4°C. The supernatant was decanted and the pellet was stored at -80°C. The bacteria were resuspended in 100 μL of sterile Tris-EDTA (TE), containing 15 mg/mL lysozyme (Sigma) then 20 μL of Proteinase K (20 mg/mL) (Roche) were added. The sample was vortexed 5 times for 10 sec at two-minutes intervals. Then 350 μL of lysis buffer from the Nucleospin RNA kit (Macherey-Nagel) were added to the sample with 3.5 μL of β-mercaptoethanol and 25 mg of glass beads (Sigma). The cells were lysed by continual vortexing for 5 min. The mRNA was extracted according to the manufacturer’s instructions. After elution, RNA samples were incubated with 5 μL of DNAse for 20 min at room temperature, then inactivated by heating for 70°C for 5 min. RNA concentration was measured using Nanovue (GE Healthcare). For cDNA synthesis 1 μg of RNA was generally used with the SuperScript III kit (Invitrogen) containing a reverse transcriptase, a set of primers, dNTPs, MgCl2 random hexamers and […] after the cDNA generation according to manufacturer’s instructions. Samples were then stored at -20°C. qPCR measurements were done with 2.5 μL of cDNA mixed with 1 μL (3 μM final) of forward and reverse primers, 5 μL iQ SYBR Green Supermix (BioRad) and 0.5 μL water using the CFX Connect Optical Module (BioRad) program as follows: 95°C for 3 min, then a repeat 40 times of 95°C for 10 sec, 55°C for 30 sec, and a fluorescence reading.

[2] = tested on: bceAB genes in S. pneumoniae D39 Δtcs01; test: Quantification of gene expression by qPCR; format: cell-based, Streptococcus pneumoniae; conditions: D39 Δtcs01 knockout; bacitracin 1 μg/ml
Experimental: as §1

CC[C@H](C)[C@H](N)C1=N[C@H](C(=O)N[C@@H](CC(C)C)C(=O)N[C@H](CCC(=O)O)C(=O)N[C@H](C(=O)N[C@H]2CCCCNC(=O)[C@H](CC(N)=O)NC(=O)[C@@H](CC(=O)O)NC(=O)[C@H](Cc3cnc[nH]3)NC(=O)[C@@H](Cc3ccccc3)NC(=O)[C@H]([C@@H](C)CC)NC(=O)[C@@H](CCCN)NC2=O)[C@@H](C)CC)CS1 [bacitracin] ({Ileψ(thiazoline)Cys}-L[dE]IK[dOrn]I[dF]H[dD]N; lactam 4-C (inferred); N-terminus assumed)
Transcription of the tcs01 genes [1]: unaffected | Transcription of the bceAB genes ([1]; n = 6-8): strong upregulation | Transcription of the bceAB genes [2]: failed to upregulate
